Measured values reported in US11053204B2, “Pyrimidinyloxy benzene derivatives as herbicides” (FMC Corporation, priority 2015, dated 2021).

Key:
Type in all cases: in vivo
[1] = test system: Italian ryegrass (Lolium multiflorum); assay: Test A preemergence, visual injury rating; conditions: for Ryegrass, Italian plant response rating: 0 to 100 scale (0 no effect, 100 complete control)
In short: (§1)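 Scoring: eye-based comparison with untreated controls, 0 for no effect through 100 for complete control, at about day 10. Treatments: directed soil spray preemergence; foliar spray postemergence on 2–10 cm plants at the one- to two-leaf stage. Medium: loam soil with sand.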

[2] = test system: barnyardgrass (Echinochloa crus-galli); assay: Test A preemergence, visual injury rating; conditions: for Barnyardgrass plant response rating: 0 to 100 scale (0 no effect, 100 complete control)
In short: as §1

[3] = test system: giant foxtail (Setaria faberii); assay: Test A preemergence, visual injury rating; conditions: for Foxtail, Giant plant response rating: 0 to 100 scale (0 no effect, 100 complete control)
In short: as §1

kochia (Kochia scoparia) [4] = assay: Test A preemergence, visual injury rating; conditions: for Kochia plant response rating: 0 to 100 scale (0 no effect, 100 complete control)
In short: as §1

[5] = test system: pigweed (Amaranthus retroflexus); assay: Test A preemergence, visual injury rating; conditions: for Pigweed plant response rating: 0 to 100 scale (0 no effect, 100 complete control)
In short: as §1

[6] = test system: ragweed (common ragweed, Ambrosia elatior); assay: Test A preemergence, visual injury rating; conditions: for Ragweed plant response rating: 0 to 100 scale (0 no effect, 100 complete control)
In short: as §1

[7] = test system: Italian ryegrass (Lolium multiflorum); assay: Test A postemergence, visual injury rating; conditions: 0 is no effect, 100 is complete control; for Ryegrass, Italian plant response rating: 0 to 100 scale, approximately 10 days
In short: as §1

[8] = test system: barnyardgrass (Echinochloa crus-galli); assay: Test A postemergence, visual injury rating; conditions: 0 is no effect, 100 is complete control
In short: as §1

[9] = test system: blackgrass (Alopecurus myosuroides); assay: Test A postemergence, visual injury rating; conditions: 0 is no effect, 100 is complete control
In short: as §1

corn (Zea mays) = assay: Test A postemergence, visual injury rating; conditions: 0 is no effect, 100 is complete control
In short: as §1

[10] = test system: galium (catchweed bedstraw, Galium aparine); assay: Test A postemergence, visual injury rating; conditions: 0 is no effect, 100 is complete control
In short: as §1

[11] = test system: giant foxtail (Setaria faberii); assay: Test A postemergence, visual injury rating; conditions: 0 is no effect, 100 is complete control
In short: as §1

kochia (Kochia scoparia) [12] = assay: Test A postemergence, visual injury rating; conditions: 0 is no effect, 100 is complete control; for Kochia plant response rating: 0 to 100 scale, approximately 10 days
In short: as §1

[13] = test system: pigweed (Amaranthus retroflexus); assay: Test A postemergence, visual injury rating; conditions: 0 is no effect, 100 is complete control; for Pigweed plant response rating: 0 to 100 scale, approximately 10 days
In short: as §1

[14] = test system: ragweed (common ragweed, Ambrosia elatior); assay: Test A postemergence, visual injury rating; conditions: 0 is no effect, 100 is complete control; for Ragweed plant response rating: 0 to 100 scale, approximately 10 days
In short: as §1

[15] = test system: wheat (Triticum aestivum); assay: Test A postemergence, visual injury rating; conditions: 0 is no effect, 100 is complete control; for Wheat plant response rating: 0 to 100 scale, approximately 10 days
In short: as §1

[16] = test system: barnyardgrass (Echinochloa crus-galli); assay: Test B flooded paddy test, plant response rating; conditions: 250 g ai/ha; Flood; scale of 0 to 100 where 0 is no effect and 100 is complete control; 13 to 15 days
In short: (§2)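 Greenhouse pots flooded to 3 cm above soil at time of treatment received compound via the water, which stayed at that level.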

[17] = test system: ducksalad (Heteranthera limosa); assay: Test B flooded paddy test, plant response rating; conditions: 250 g ai/ha; Flood; scale of 0 to 100 where 0 is no effect and 100 is complete control; 13 to 15 days
In short: as §2

rice (Oryza sativa) = assay: Test B flooded paddy test, plant response rating; conditions: 250 g ai/ha; Flood; scale of 0 to 100 where 0 is no effect and 100 is complete control; 13 to 15 days
In short: as §2

[18] = test system: sedge, umbrella (small-flower umbrella sedge, Cyperus difformis); assay: Test B flooded paddy test, plant response rating; conditions: 250 g ai/ha; Flood; scale of 0 to 100 where 0 is no effect and 100 is complete control; 13 to 15 days
In short: as §2

[19] = 31 g ai/ha, 0 to 100 scale, 0 no effect, 100 complete control
[20] = 31 g ai/ha, 0 to 100 scale, approximately 10 days

In the case of `CC(CN(C)C(=O)c1c(Br)cccc1Oc1ncc(Cl)cn1)C(F)(F)F` (stereo not drawn) [Compound 18], the “Ryegrass, Italian plant response rating” value ([1]; 125 g ai/ha) is reported as 0, the “Ryegrass, Italian plant response rating” value ([1]; 500 g ai/ha) is reported as 0 and the “Barnyardgrass plant response rating” value ([2]; 125 g ai/ha) is reported as 0. The “Barnyardgrass plant response rating” value ([2]; 500 g ai/ha) was 0, the “Foxtail, Giant plant response rating” value ([3]; 125 g ai/ha) was 0 and the “Foxtail, Giant plant response rating” value ([3]; 500 g ai/ha) was 0. For the same compound, the “Kochia plant response rating” value (kochia (Kochia scoparia) [4]; 125 g ai/ha) was 0, the “Kochia plant response rating” value (kochia (Kochia scoparia) [4]; 500 g ai/ha) was 10 and the “Pigweed plant response rating” value ([5]; 125 g ai/ha) was 10. For the same compound, the “Pigweed plant response rating” value ([5]; 500 g ai/ha) was 40, the “Ragweed plant response rating” value ([6]; 125 g ai/ha) was 0 and the “Ragweed plant response rating” value ([6]; 500 g ai/ha) was 0. For the same compound, the “Ryegrass, Italian plant response rating (0 to 100 scale)” value ([7]; 125 g ai/ha) was 0, the “Ryegrass, Italian plant response rating (0 to 100 scale)” value ([7]; 500 g ai/ha) was 0 and the “Barnyardgrass plant response rating (0 to 100 scale)” value ([8]; 125 g ai/ha) was 0. The “Barnyardgrass plant response rating (0 to 100 scale)” value ([8]; 500 g ai/ha) was 0, the “Blackgrass plant response rating (0 to 100 scale)” value ([9]; 125 g ai/ha) was 0 and the “Blackgrass plant response rating (0 to 100 scale)” value ([9]; 500 g ai/ha) was 0. The “Corn plant response rating (0 to 100 scale)” value (corn (Zea mays); 125 g ai/ha) was 0, the “Corn plant response rating (0 to 100 scale)” value (corn (Zea mays); 500 g ai/ha) was 0 and the “Galium plant response rating (0 to 100 scale)” value ([10]; 125 g ai/ha) was 0. For the same compound, the “Galium plant response rating (0 to 100 scale)” value ([10]; 500 g ai/ha) was 0, the “Foxtail, Giant plant response rating (0 to 100 scale)” value (“Foxtail … (0 to 100 scale)” for short) ([11]; 125 g ai/ha) was 0 and the “Foxtail … (0 to 100 scale)” value ([11]; 500 g ai/ha) was 0. The “Kochia plant response rating (0 to 100 scale)” value (kochia (Kochia scoparia) [12]; 125 g ai/ha) was 0, the “Kochia plant response rating (0 to 100 scale)” value (kochia (Kochia scoparia) [12]; 500 g ai/ha) was 10 and the “Pigweed plant response rating (0 to 100 scale)” value ([13]; 125 g ai/ha) was 10. For the same compound, the “Pigweed plant response rating (0 to 100 scale)” value ([13]; 500 g ai/ha) was 20, the “Ragweed plant response rating (0 to 100 scale)” value ([14]; 125 g ai/ha) was 0 and the “Ragweed plant response rating (0 to 100 scale)” value ([14]; 500 g ai/ha) was 0. For the same compound, the “Wheat plant response rating (0 to 100 scale)” value ([15]; 125 g ai/ha) was 0, the “Wheat plant response rating (0 to 100 scale)” value ([15]; 500 g ai/ha) was 0 and the “Plant response rating, Barnyardgrass” value [16] was 0. The “Plant response rating, Ducksalad” value [17] was 0, the “Plant response rating, Rice” value (rice (Oryza sativa)) was 0 and the “Plant response rating, Sedge, Umbrella” value [18] was 0.
With `N#Cc1cccc(Oc2ncc(Cl)cn2)c1COCCCC(F)(F)F` [Compound 81] the “Plant response rating, Ryegrass, Italian” value [1, 19] was 0, the “Ryegrass, Italian plant response rating” value ([1]; 125 g ai/ha) was 20 and the “Plant response rating, Barnyardgrass” value [2, 19] was 10. The “Barnyardgrass plant response rating” value ([2]; 125 g ai/ha) was 90, the “Plant response rating, Foxtail, Giant” value [3, 19] was 30 and the “Foxtail, Giant plant response rating” value ([3]; 125 g ai/ha) was 100. The “Plant response rating, Kochia” value (kochia (Kochia scoparia) [4]; [19]) was 0, the “Kochia plant response rating” value (kochia (Kochia scoparia) [4]; 125 g ai/ha) was 90 and the “Plant response rating, Pigweed” value [5, 19] was 100. For the same compound, the “Pigweed plant response rating” value ([5]; 125 g ai/ha) was 100, the “Plant response rating, Ragweed” value [6, 19] was 0 and the “Ragweed plant response rating” value ([6]; 125 g ai/ha) was 0. The “Ryegrass, Italian plant response rating” value ([7]; 31 g ai/ha) was 0, the “Ryegrass, Italian plant response rating” value ([7]; 125 g ai/ha) was 10 and the “Barnyardgrass plant response rating” value [8, 20] was 10. For the same compound, the “Barnyardgrass plant response rating (0 to 100 scale)” value ([8]; 125 g ai/ha) was 50, the “Blackgrass plant response rating” value [9, 20] was 10 and the “Blackgrass plant response rating (0 to 100 scale)” value ([9]; 125 g ai/ha) was 40. The “Corn plant response rating” value (corn (Zea mays); [20]) was 10, the “Corn plant response rating (0 to 100 scale)” value (corn (Zea mays); 125 g ai/ha) was 40 and the “Galium plant response rating” value [10, 20] was 30. For the same compound, the “Galium plant response rating (0 to 100 scale)” value ([10]; 125 g ai/ha) was 80, the “Foxtail, Giant plant response rating” value [11, 20] was 20 and the “Foxtail … (0 to 100 scale)” value ([11]; 125 g ai/ha) was 70. The “Kochia plant response rating” value (kochia (Kochia scoparia) [12]; 31 g ai/ha) was 30, the “Kochia plant response rating” value (kochia (Kochia scoparia) [12]; 125 g ai/ha) was 50 and the “Pigweed plant response rating” value ([13]; 31 g ai/ha) was 50. The “Pigweed plant response rating” value ([13]; 125 g ai/ha) was 100, the “Ragweed plant response rating” value ([14]; 31 g ai/ha) was 0 and the “Ragweed plant response rating” value ([14]; 125 g ai/ha) was 10. For the same compound, the “Wheat plant response rating” value ([15]; 31 g ai/ha) was 0, the “Wheat plant response rating” value ([15]; 125 g ai/ha) was 0 and the “Plant response rating, Barnyardgrass” value [16] was 45. The “Plant response rating, Ducksalad” value [17] was 100, the “Plant response rating, Rice” value (rice (Oryza sativa)) was 0 and the “Plant response rating, Sedge, Umbrella” value [18] was 100.
